Where two headings read alike, the source gives them in different places.
What was measured:
Smn protein = Smn protein assay in cultured cells (SMN HTRF); assay type: cell-based, human; settings: 48 hours; for EC1.5x (concentration giving 1.5-fold Smn protein increase): SMA Type 1 patient fibroblast cells (GM03813), 7-point concentration curve, SMN HTRF, concentration producing 1.5 times Smn protein vs DMSO vehicle control, read-out: EC1.5x for Smn protein expression; for maximum fold (Fold) increase of Smn protein: SMA patient fibroblast cells, 7-point concentration data, fold increase relative to vehicle control (SMN HTRF)
In short: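 Smn in SMA fibroblast lysates, measured by anti-SMN HTRF after 48 h compound exposure; EC1.5x from fold change over vehicle.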

[1] = system: SMN2 minigene (full length SMN2 minigene mRNA containing SMN2 exon 7); test: SMN2 minigene mRNA splicing RT-qPCR assay in cultured cells; assay type: cell-based, human; settings: Homo sapiens, HEK293-H, read-out: EC1.5x for production of full length SMN2 mRNA
In short: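 Lysates → one-step RT-qPCR, minigene-specific primers (0.4 μM final) + GAPDH multiplex, 40 cycles. FL/GAPDH vs DMSO; EC1.5x, star-binned.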

[2] = HEK293H cells stably transfected with SMN2-A minigene, 24 hours, 7-point concentration curve, 1.5-fold relative to vehicle-treated cells

melting point | SMILES | EC1.5x (concentration giving 1.5-fold Smn protein increase) (Smn protein) | maximum fold (Fold) increase of Smn protein (Smn protein) | EC (1.5-fold) [1, 2] | EC (1.5-fold) ([1]; 24 h)
285 to 287 °C | C[C@@H]1CN(c2ccc3cc(-c4cn5cccnc5n4)c(=O)oc3c2)CCN1 [Compound 169, 3-(imidazo[1,2-a]pyrimidin-2-yl)-7-[(3R)-3-methylpiperazin-1-yl]-2H-chromen-2-one] | 1000 to 3000 nM | *** (fold increase between >1.35 and ≤1.5) | 0.3 to 1 µM | –
260 to 270 °C | Cc1ccn2cc(-c3cc4ccc(N5CCNCC5)cc4oc3=O)nc2c1 [Compound 131, 3-(7-methylimidazo[1,2-a]pyridin-2-yl)-7-(piperazin-1-yl)-2H-chromen-2-one] | – | *** (fold increase between >1.35 and ≤1.5) | 0.3 to 1 µM | –
195 to 202 °C | Cc1cn2cc(-c3cc4ccc(OCCN5CC[C@@H](O)C5)cc4oc3=O)nc2c(C)n1 [Compound 941, 3-(6,8-dimethylimidazo[1,2-a]pyrazin-2-yl)-7-{2-[(3R)-3-hydroxypyrrolidin-1-yl]ethoxy}-2H-chromen-2-one] | 1000 to 3000 nM | **** (fold increase between >1.5 and ≤1.65) | < 0.1 µM | –
308 to 310 °C | Cc1cnc2nc(-c3cc4ccc(N5C[C@@H](C)N[C@@H](C)C5)cc4oc3=O)cn2c1 [Compound 243, 7-[(3R,5S)-3,5-dimethylpiperazin-1-yl]-3-(6-methylimidazo[1,2-a]pyrimidin-2-yl)-2H-chromen-2-one] | 3000 to 10000 nM | ** (fold increase between >1.2 and ≤1.35) | 0.3 to 1 µM | –
292 to 296 °C | Cc1ccn2cc(-c3cc4ccc(O[C@@H]5CCNC5)cc4oc3=O)nc2n1.Cl.Cl [Compound 322, 3-(7-methylimidazo [1,2-a]pyrimidin-2-yl)-7-[(3R)-pyrrolidin-3-yloxy]-2H-chromen-2-one hydrochloride (1:2)] | – | ** (fold increase between >1.2 and ≤1.35) | 0.3 to 1 µM | –
261 to 265 °C | Cc1ccc2nc(-c3cc4ccc(O[C@@H]5CCNC5)cc4oc3=O)cn2c1.Cl.Cl [Compound 326, 3-(6-methylimidazo[1,2-a]pyridin-2-yl)-7-[(3R)-pyrrolidin-3-yloxy]-2H-chromen-2-one hydrochloride (1:2)] | – | ** (fold increase between >1.2 and ≤1.35) | 0.1 to 0.3 µM | –
262 to 269 °C | Cc1cn2cc(-c3cc4ccc(N5CCC(N)CC5)cc4oc3=O)nc2c(C)n1 [Compound 919, 7-(4-aminopiperidin-1-yl)-3-(6,8-dimethylimidazo[1,2-a]pyrazin-2-yl)-2H-chromen-2-one] | < 300 nM | **** (fold increase between >1.5 and ≤1.65) | < 0.1 µM | –
230 to 233 °C | C[C@H]1CN(c2ccc3cc(-c4cn5ccsc5n4)c(=O)oc3c2)CCN1 [Compound 205, 3-(imidazo[2,1-b][1,3]thiazol-6-yl)-7-[(3S)-3-methylpiperazin-1-yl]-2H-chromen-2-one] | – | *** (fold increase between >1.35 and ≤1.5) | < 0.1 µM | –

Continued, compound first:

SMILES | melting point | EC1.5x (concentration giving 1.5-fold Smn protein increase) (Smn protein) | maximum fold (Fold) increase of Smn protein (Smn protein) | EC (1.5-fold) [1, 2] | EC (1.5-fold) ([1]; 24 h)
Cc1cccn2cc(-c3cc4ccc(N5CCCN(C)CC5)cc4oc3=O)nc12 [Compound 246, 7-(4-methyl-1,4-diazepan-1-yl)-3-(8-methylimidazo[1,2-a]pyridin-2-yl)-2H-chromen-2-one] | 138 to 140 °C | 1000 to 3000 nM | *** (fold increase between >1.35 and ≤1.5) | 0.1 to 0.3 µM | –
Cc1cn2cc(-c3cc4ccc(N5CCN(CCCF)[C@@H](C)C5)cc4oc3=O)nc2c(C)n1 [Compound 900, 3-(6,8-dimethylimidazo[1,2-a]pyrazin-2-yl)-7-[(3S)-4-(3-fluoropropyl)-3-methylpiperazin-1-yl]-2H-chromen-2-one] | 215 to 217 °C | < 300 nM | ***** (fold increase >1.65) | < 0.1 µM | –
Cc1cn2cc(-c3cc4ccc(N5CCNCC5)cc4oc3=O)cc2cn1 [Cpd 588, 3-(3-methylpyrrolo[1,2-a]pyrazin-7-yl)-7-(piperazin-1-yl)-2H-chromen-2-one] | 220 °C (dec.) | < 300 nM | ***** (fold increase >1.65) | < 0.1 µM | –
Cc1csc2nc(-c3cc4ccc(N5C[C@@H](C)N[C@@H](C)C5)cc4oc3=O)cn12 [Compound 182, 7-[(3R,5S)-3,5-dimethylpiperazin-1-yl]-3-(3-methylimidazo[2,1-b][1,3]thiazol-6-yl)-2H-chromen-2-one] | 211 to 215 °C | – | ** (fold increase between >1.2 and ≤1.35) | 1 to 3 µM | –
Cc1cc(F)c2nc(-c3cc4ccc(N5C[C@@H](C)N[C@@H](C)C5)cc4oc3=O)cn2c1 [Compound 354, 7-[(3R,5S)-3,5-dimethylpiperazin-1-yl]-3-(8-fluoro-6-methylimidazo[1,2-a]pyridin-2-yl)-2H-chromen-2-one] | 268 to 275 °C | 1000 to 3000 nM | *** (fold increase between >1.35 and ≤1.5) | < 0.1 µM | –
CCCN1CCN(c2ccc3cc(-c4cn5cccc(C)c5n4)c(=O)oc3c2)CC1 [Compound 101, 3-(8-methylimidazo[1,2-a]pyridin-2-yl)-7-(4-propylpiperazin-1-yl)-2H-chromen-2-one] | 249 to 251 °C | – | ** (fold increase between >1.2 and ≤1.35) | 1 to 3 µM | –
O=c1oc2cc(N3CCN4CCC[C@@H]4C3)ccc2cc1-c1cn2cccc(F)c2n1 [Compound 531, 3-(8-fluoroimidazo[1,2-a]pyridin-2-yl)-7-[(8aR)-hexahydropyrrolo[1,2-a]pyrazin-2(1H)-yl]-2H-chromen-2-one] | 238 to 241 °C | – | ** (fold increase between >1.2 and ≤1.35) | 0.3 to 1 µM | –
Cc1cn2cc(-c3cc4ccc(N5CCCNCC5)cc4oc3=O)nc2c(C(F)(F)F)n1 [Cpd 607, 7-(1,4-diazepan-1-yl)-3-[6-methyl-8-(trifluoromethyl)imidazo[1,2-a]pyrazin-2-yl]-2H-chromen-2-one] | > 300 °C | 300 to 1000 nM | *** (fold increase between >1.35 and ≤1.5) | < 0.1 µM | –
O=c1oc2cc(N3CCN4CCCCC4C3)ccc2cc1-c1cn2cccc(F)c2n1 (centres unmarked) [Compound 578, 3-(8-fluoroimidazo[1,2-a]pyridin-2-yl)-7-(octahydro-2H-pyrido[1,2-a]pyrazin-2-yl)-2H-chromen-2-one] | 230 to 233 °C | – | * (maximum fold increase of ≤1.2) | 1 to 3 µM | –
O=c1oc2cc(N3CCNCC3)ccc2cc1-c1ccsc1 [Compound 319, 7-(piperazin-1-yl)-3-(thiophen-3-yl)-2H-chromen-2-one] | 175 to 177 °C | – | ** (fold increase between >1.2 and ≤1.35) | – | 1 to 3 µM
C[C@H]1CN(c2ccc3cc(-c4ccc5c(c4)OCCO5)c(=O)oc3c2)CCN1 [Compound 513, 3-(2,3-dihydro-1,4-benzodioxin-6-yl)-7-[(3S)-3-methylpiperazin-1-yl]-2H-chromen-2-one] | 196 to 198 °C | – | * (maximum fold increase of ≤1.2) | 1 to 3 µM | –
C[C@@H]1CN(c2cc(F)c3cc(-c4cn5ccc(C(F)(F)F)cc5n4)c(=O)oc3c2)C[C@H](C)N1 [Cpd 391, 7-[(3R,5S)-3,5-dimethylpiperazin-1-yl]-5-fluoro-3-[7-(trifluoromethyl)imidazo[1,2-a]pyridin-2-yl]-2H-chromen-2-one] | 210 to 219 °C | – | ** (fold increase between >1.2 and ≤1.35) | 1 to 3 µM | –
Cc1cn2cc(-c3cc4ccc(N5CCN(CCF)[C@@H](C)C5)cc4oc3=O)nc2c(C)n1 [Compound 894, 3-(6,8-dimethylimidazo[1,2-a]pyrazin-2-yl)-7-[(3S)-4-(2-fluoroethyl)-3-methylpiperazin-1-yl]-2H-chromen-2-one] | 192 to 195 °C | 300 to 1000 nM | ***** (fold increase >1.65) | < 0.1 µM | –
CCN1CCN(c2ccc3cc(-c4cn5cc(C)ccc5n4)c(=O)oc3c2)CC1 [Compound 95, 7-(4-ethylpiperazin-1-yl)-3-(6-methylimidazo[1,2-a]pyridin-2-yl)-2H-chromen-2-one] | 266 to 269 °C | < 300 nM | **** (fold increase between >1.5 and ≤1.65) | 1 to 3 µM | –
CN1CCCN(c2ccc3cc(-c4cn5cccc(Cl)c5n4)c(=O)oc3c2)CC1 [Compound 280, 3-(8-chloroimidazo[1,2-a]pyridin-2-yl)-7-(4-methyl-1,4-diazepan-1-yl)-2H-chromen-2-one] | 161 to 163 °C | – | *** (fold increase between >1.35 and ≤1.5) | 0.1 to 0.3 µM | –
